This note sets out measurements from ChEMBL document CHEMBL1201862, “PubChem BioAssay data set” (2004).

For orientation: GI50 means the concentration that inhibits growth by half.

Some test systems named below: UO-31; CCRF-CEM; NCI-H522; COLO 205; TK-10; NCI-H460; MDA-N; OVCAR-5; EKVX; BT-549; 786-0; SN12C; NCI-H226; A498; NCI-H23; HCT-116; ACHN; Hs-578T; SR; SK-MEL-5.
Holding throughout (assay): DTP human tumour cell line panel, 48 h

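48-hour exposure; five concentrations; linearly interpolated endpoints. The concentration for 50% growth inhibition is given as GI50.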 The source made the active and inactive calls. Rule as the data show it: active = GI50 up to about 1.1 µM and inactive = higher.

As to `COc1ccc(/C=C\c2cc(OC)c(OC)c(OC)c2)cc1OC(=O)CC(N)C(=O)O` (stereo not given), the GI50 is 0.00759 µM (active) with UO-31; 0.000418 µM (active) in the experiment with CCRF-CEM; 0.00132 µM (active) in the experiment on NCI-H522; 0.635 µM (active) in the experiment on COLO 205; 0.519 µM (active) in the experiment on TK-10; 0.00219 µM (active) in the experiment with NCI-H460. The GI50 was 0.000166 µM (active) in the experiment on MDA-N; 0.327 µM (active) in the experiment with OVCAR-5; 34.8 µM (inactive) in the experiment with EKVX; 0.00646 µM (active) in the experiment with BT-549; 0.0111 µM (active) in the experiment with 786-0; 0.00521 µM (active) with SN12C. Moreover, the GI50 in the experiment on NCI-H226 was 0.054 µM (active); in the experiment with A498, 0.00269 µM (active); with NCI-H23, 0.0021 µM (active); with HCT-116 it was 0.00103 µM (active); in the experiment with ACHN, 0.00437 µM (active); in the experiment with Hs-578T, 0.000426 µM (active). In addition, in the experiment with SR, the GI50 was 0.00577 µM (active).

For `COc1ccc(/C=N/n2c(-c3ccccc3)n[nH]c2=O)c(OC)c1`, the GI50 was 24.4 µM (inactive) in the experiment on UO-31; > 100 µM (inactive) in the experiment on CCRF-CEM; > 52.2 µM (inactive) with NCI-H522; > 100 µM (inactive) with COLO 205; 27 µM (inactive) with TK-10; 51.1 µM (inactive) in the experiment with NCI-H460. Further, the GI50 in the experiment with MDA-N was > 100 µM (inactive); in the experiment with OVCAR-5, > 92.9 µM (inactive); in the experiment with EKVX it was 38.5 µM (inactive); with BT-549, 4.41 µM (inactive); in the experiment with 786-0, 30.5 µM (inactive); with SN12C, 44 µM (inactive). In addition, the GI50 with NCI-H226 is 51.1 µM (inactive); in the experiment with A498, 31.6 µM (inactive); with NCI-H23, 39.4 µM (inactive); with HCT-116, 54.5 µM (inactive); in the experiment with ACHN, 29 µM (inactive); in the experiment on SK-MEL-5, > 68.9 µM (inactive). In addition, the GI50 in the experiment on Hs-578T is 37.2 µM (inactive); in the experiment on SR, > 100 µM (inactive).

With `CCn1c(SCC(=O)NNC(=S)Nc2ccc(F)cc2)nc2ccccc2c1=O`, the GI50 in the experiment with UO-31 was 17.9 µM (inactive); with CCRF-CEM, > 100 µM (inactive); in the experiment on NCI-H522, 48 µM (inactive); in the experiment with COLO 205 it was > 100 µM (inactive); with TK-10, > 100 µM (inactive); in the experiment on NCI-H460, 0.472 µM (active). For the same compound, the GI50 in the experiment with MDA-N, in the experiment on OVCAR-5, with EKVX, in the experiment with BT-549, with 786-0 and in the experiment with SN12C was > 100 µM (inactive) throughout. Also, the GI50 with NCI-H226, with A498, in the experiment with NCI-H23, in the experiment with HCT-116, with ACHN and with SK-MEL-5 was > 100 µM (inactive) each time. The GI50 with Hs-578T was > 100 µM (inactive); in the experiment with SR it was 49.4 µM (inactive).

For `O=C1c2cc(Cl)ccc2N=C(NCCCl)C2CSCN12` (stereo not given), the GI50 in the experiment on UO-31 was > 100 µM (inactive); in the experiment with CCRF-CEM, 78.7 µM (inactive); with NCI-H522, 24.3 µM (inactive); in the experiment on COLO 205, > 100 µM (inactive); in the experiment with TK-10, > 100 µM (inactive); with NCI-H460, > 100 µM (inactive). The GI50 in the experiment on MDA-N, in the experiment on OVCAR-5, with EKVX, in the experiment with BT-549, with 786-0 and in the experiment with SN12C was > 100 µM (inactive) in each case. In addition, the GI50 in the experiment with NCI-H226 is > 100 µM (inactive); in the experiment with A498, > 100 µM (inactive); in the experiment with HCT-116 it was > 100 µM (inactive); in the experiment on ACHN, > 100 µM (inactive); with SK-MEL-5 it was > 100 µM (inactive); with Hs-578T, 86.5 µM (inactive). Also, the GI50 with SR was 52.8 µM (inactive).

Take `O=c1c2cccnc2[nH]c2ccc3scnc3c12`: the GI50 was 5.27 µM (inactive) with CCRF-CEM; > 10 µM (inactive) in the experiment on NCI-H522; 5.12 µM (inactive) with COLO 205; 4.86 µM (inactive) in the experiment on TK-10; 7.01 µM (inactive) with NCI-H460; > 10 µM (inactive) with MDA-N. Also, the GI50 in the experiment with OVCAR-5 is > 10 µM (inactive); in the experiment with EKVX, > 10 µM (inactive); in the experiment on BT-549, > 10 µM (inactive); in the experiment on 786-0 it was 5.58 µM (inactive); with SN12C, 6.24 µM (inactive); in the experiment with NCI-H226, 5.97 µM (inactive). The GI50 was 7.62 µM (inactive) in the experiment with A498; > 10 µM (inactive) in the experiment with NCI-H23; 3.3 µM (inactive) in the experiment on HCT-116; 1.87 µM (inactive) in the experiment with ACHN; 7.01 µM (inactive) in the experiment with SK-MEL-5; > 10 µM (inactive) with Hs-578T. In the experiment on SR, the GI50 was 4.32 µM (inactive).

Turning to `C/C(=N\Nc1nc2ccccc2s1)c1ccncn1`, the concentration for 50% growth inhibition (GI50) with UO-31 is 0.387 µM (active); in the experiment on CCRF-CEM, 0.117 µM (active); in the experiment with NCI-H522, 0.12 µM (active); in the experiment on COLO 205 it was 0.126 µM (active); with NCI-H460, 0.438 µM (active); in the experiment with MDA-N it was 9.44 µM (inactive). The GI50 was 3.13 µM (inactive) in the experiment on OVCAR-5; 0.245 µM (active) in the experiment with EKVX; 4.15 µM (inactive) in the experiment with BT-549; 0.719 µM (active) with 786-0; 0.379 µM (active) with SN12C; 0.14 µM (active) in the experiment with NCI-H226. The GI50 with A498 was > 100 µM (inactive); in the experiment on NCI-H23 it was 0.56 µM (active); with HCT-116 it was 0.532 µM (active); with ACHN, 0.0673 µM (active); in the experiment with SK-MEL-5, 0.621 µM (active); with Hs-578T, 6.03 µM (inactive). Also, in the experiment on SR, the GI50 is 0.641 µM (active).

Consider `C[C@]12CC[C@@H]3c4ccc(OC(=O)c5ccccc5)cc4CC[C@H]3[C@@H]1CCC2OC(=O)c1cccc2c(=O)c3ccccc3[nH]c12` (stereo not given in full), for which the GI50 in the experiment on UO-31 was 27.6 µM (inactive); in the experiment on CCRF-CEM, 24.7 µM (inactive); with NCI-H522 it was 23.3 µM (inactive); in the experiment on COLO 205, 16.9 µM (inactive); with TK-10 it was 19.1 µM (inactive); in the experiment with NCI-H460 it was 17.4 µM (inactive). Further, the GI50 in the experiment on MDA-N is 11.1 µM (inactive); with OVCAR-5, 18.2 µM (inactive); with EKVX, 9.38 µM (inactive); in the experiment with BT-549, 18.2 µM (inactive); in the experiment on 786-0, 17.5 µM (inactive); in the experiment on SN12C it was 14.4 µM (inactive). In addition, the GI50 in the experiment with NCI-H226 was 17.9 µM (inactive); in the experiment with A498, 26 µM (inactive); with NCI-H23, 20.8 µM (inactive); in the experiment on HCT-116 it was 16.4 µM (inactive); in the experiment on ACHN, 22.3 µM (inactive); in the experiment on SK-MEL-5, 24.1 µM (inactive). For the same compound, the GI50 with Hs-578T is 18.1 µM (inactive); in the experiment with SR, 25.8 µM (inactive).

For the compound `CC(C)N1[C@@H]2CCCC[C@H]2N(C(C)C)P1(=O)C(=O)/C=C/c1ccccc1`, the GI50 in the experiment with UO-31 was 1.64 µM (inactive); in the experiment on NCI-H522, 1.53 µM (inactive); in the experiment with COLO 205, 1.91 µM (inactive); with TK-10, 3.51 µM (inactive); in the experiment on NCI-H460 it was 2.97 µM (inactive); with MDA-N, 1.83 µM (inactive). Also, the GI50 with OVCAR-5 is 2.37 µM (inactive); in the experiment with EKVX, 3.54 µM (inactive); with BT-549, 2.91 µM (inactive); in the experiment on 786-0 it was 1.81 µM (inactive); in the experiment on SN12C, 1.99 µM (inactive); in the experiment on NCI-H226, 3.52 µM (inactive). In addition, the GI50 in the experiment on A498 was 2.75 µM (inactive); in the experiment with NCI-H23, 2.16 µM (inactive); in the experiment with HCT-116, 1.96 µM (inactive); in the experiment on ACHN, 2.69 µM (inactive); in the experiment with SK-MEL-5 it was 1.5 µM (inactive); in the experiment on Hs-578T, 1.71 µM (inactive). Also, the GI50 in the experiment with SR was 2.83 µM (inactive).

Turning to `COc1ccc(Cl)cc1NC(=O)c1cccc([N+](=O)[O-])c1O`, the GI50 with UO-31 is 7.35 µM (inactive); with CCRF-CEM, 16 µM (inactive); in the experiment on NCI-H522, 6.49 µM (inactive); in the experiment on COLO 205, 13.5 µM (inactive); with TK-10 it was 32.9 µM (inactive); with NCI-H460, 15.7 µM (inactive). Besides, the GI50 in the experiment on MDA-N is 19.8 µM (inactive); with OVCAR-5, 27.8 µM (inactive); with EKVX it was 9.82 µM (inactive); in the experiment on BT-549 it was 4.37 µM (inactive); in the experiment with 786-0 it was 16.8 µM (inactive); in the experiment with SN12C, 12.6 µM (inactive). Besides, the GI50 with NCI-H226 is 15 µM (inactive); in the experiment with A498 it was 5.7 µM (inactive); in the experiment with NCI-H23, 10.4 µM (inactive); in the experiment with HCT-116, 16.6 µM (inactive); with ACHN it was 12.4 µM (inactive); in the experiment on SK-MEL-5 it was 4 µM (inactive). For the same compound, the GI50 with Hs-578T and in the experiment on SR was 17.5 µM (inactive) throughout.

With `COC(=O)/C(=C/c1ccc(OC)cc1)c1cc(OC)c(OC)c(OC)c1`, the GI50 is 5.46 µM (inactive) in the experiment with UO-31; 1.39 µM (inactive) in the experiment on CCRF-CEM; 0.614 µM (active) in the experiment on NCI-H522; 1.47 µM (inactive) in the experiment on COLO 205; 5.62 µM (inactive) with TK-10; 5.11 µM (inactive) in the experiment with NCI-H460. Also, the GI50 in the experiment on MDA-N is 0.133 µM (active); with OVCAR-5 it was 14.9 µM (inactive); with EKVX it was 8.69 µM (inactive); in the experiment on BT-549 it was 34 µM (inactive); in the experiment with 786-0, 4.12 µM (inactive); with SN12C, 5.08 µM (inactive). In addition, the GI50 in the experiment on NCI-H226 is 6.55 µM (inactive); with A498, 7.05 µM (inactive); in the experiment with NCI-H23, 2.84 µM (inactive); with HCT-116, 2.16 µM (inactive); in the experiment with ACHN it was 9.93 µM (inactive); with SK-MEL-5, 0.569 µM (active). Besides, the GI50 in the experiment on Hs-578T was 0.957 µM (active); in the experiment on SR, 0.379 µM (active).
